Measured values from patent US5506213A, “Adminstration of 2'-halo-2'-deoxy adenosine to treat inflammatory bowel disease” (priority 1994, dated 1996).

Experiments:
[1] = tested on: DNA strand breaks in human monocytes; assay: DNA damage in monocytes, fluorescent assay for DNA unwinding in alkaline solution; assay type: cell-based; details: for additional residual double-stranded DNA (repair) after CdA removal: over the next four hours
Description: FIG. 4 is a graph of the dose- and time-dependence for CdA in inducing DNA strand breaks in monocytes in vitro.
Monocytes were plated as discussed previously, and were then contacted with compositions containing various concentrations of CdA. The amount of DNA damage in monocytes exposed to CdA was determined by the fluorescent assay for DNA unwinding in alkaline solution described by Birnboim and Jevcak (1981) Cancer Res., 41:1889-1892, modified to accommodate lower cell numbers (Thierry et al. (1985) Radiation Res., 102:347-358).
The unwinding rate of DNA in alkaline solution at 15 degrees C. is proportional to the number of DNA strand breaks or alkali-labile sites. The ethidium bromide fluorescence of residual duplex DNA in samples exposed to pH 12.8 for one hour was compared to the fluorescence of a DNA aliquot that was not exposed to alkali. The percent residual double-stranded DNA at 1 hour was taken as a measure of the DNA damage in the sample. The results are illustrated in FIG. 4.
The repair of monocyte DNA damage caused by CdA was compared to the damage caused by gamma irradiation. Monocytes were pre-exposed to 0.1 or 1.0 μM CdA for four hours. At the end of this time, approximately 60 percent residual double-stranded DNA was present in the cells. The CdA was removed, and the amount of residual double-stranded DNA was calculated over the next four hours. Any increase in doublestranded DNA represents ongoing repair mechanisms.

[2] = tested on: rheumatoid arthritis; assay: CdA 5-day continuous infusion in rheumatoid arthritis patients: cell counts and joint parameters; assay type: in vivo, human
Description: FIG. 7 is a graph showing the results of a study of the cytotoxicity of CdA toward monocytes and lymphocytes of a rheumatoid arthritis patient receiving CdA therapy. A continuous intravenous infusion of CdA (0.1 mg/ml in isotonic saline) was administered at a dosage of 0.1 mg/kg per day for a five-day period. Monocyte numbers are shown as open squares and lymphocyte numbers are shown as closed diamonds. Three cycles of infusions of CdA were given, and are illustrated as open rectangles for the five-day time periods of each infusion at a position in the graph above the days in the treatment regimen on which infusions were given.
A study similar to that described in Example 1 was carried out with three patients having rheumatoid arthritis. In each instance, the patient had been unsuccessfully treated with methotrexate, a gold salt or penicillamine, which treatment had been stopped three weeks prior to the first treatment with CdA. […]
A specially trained nurse examined the number of swollen and painful joints in each of the patients prior to the start of each treatment. The values obtained are as listed for each patient.
PIP joint measurements refer to the total arthrocircameter measurements, in mm, of each proximal interphalangeal (PIP) joint, for each patient. Values are shown for each of the three patients.
Each patient was asked to rank his or her performance of nine function parameters on a 0 to 10 scale, 10 being the highest. These function parameters were: turning in bed, rising from a chair, buttoning buttons, combing hair, walking, turning knobs, climbing stairs, getting in and out of an automobile, and general well being. The total score on these nine parameters for each patient is listed as the performance index.

[3] = tested on: monocytes; assay: Direct comparative cytotoxicity assay (Table II), monocytes; assay type: cell-based, human; details: Homo sapiens, Monocyte, 120 h, read-out: ID50: concentration that produced 50 percent reduction in all numbers after five days
Source text: The two compounds, CdA and CAFdA, were also compared for in vitro activity against another group of human cell lines in a direct comparative assay.
^1 Concentration that produced 50 percent reduction in all numbers

[4] = tested on: delayed-type hypersensitivity (DTH) reaction; assay: Delayed-type hypersensitivity to ovalbumin in guinea pigs, different dosages of CdA; assay type: in vivo, guinea pig; details: for swelling compared to control saline treated animals: 24 and 48 hours post-challenge, p<0.01
Description: Delayed-type hypersensitivity (DTH) is a cell-mediated immune response that typically takes longer than 12 hours to develop. In the guinea pig, a DTH reaction to an antigen can be established by first immunizing the animal with the antigen in an adjuvant such as Freund's complete adjuvant. Subsequent intradermal injection of the antigen causes no change for at least 10 hours, after which there is a gradual increase in erythema and swelling in response to antigen injection. This response peaks about at about 24 hours after challenge, then gradually subsides.
In another study, the effects of different dosages of CdA on the DTH reaction were examined. Guinea pigs sensitized to ovalbumin were treated with saline (control), dexamethasone (5 mg/kg), and CdA at 1 mg/kg or 0.1 mg/kg. Three days after treatment, the animals were challenged with ovalbumin intradermally. The areas of the skin lesions were measured at 6, 24, and 48 hours after challenge.

[5] = tested on: intact human cells or cell extracts; details: cited from earlier work
[6] = Pt. # 1, CdA treatment course 1
[7] = Pt. # 1, CdA treatment course 2
[8] = Pt. # 1, CdA treatment course 3
[9] = Pt. # 1, prior to start of CdA treatment course 1
[10] = Pt. # 1, prior to start of CdA treatment course 2
[11] = Pt. # 1, prior to start of CdA treatment course 3
[12] = Pt. # 2, CdA treatment course 1
[13] = Pt. # 2, CdA treatment course 2
[14] = Pt. # 2, CdA treatment course 3
[15] = Pt. # 2, prior to start of CdA treatment course 1
[16] = Pt. # 2, prior to start of CdA treatment course 2
[17] = Pt. # 2, prior to start of CdA treatment course 3
[18] = Pt. # 2, prior to start of CdA treatment course 4
[19] = Pt. # 2, prior to start of CdA treatment course 5
[20] = Pt. # 2, prior to start of CdA treatment course 6
[21] = Pt. # 3, CdA treatment course 1
[22] = Pt. # 3, CdA treatment course 2
[23] = Pt. # 3, CdA treatment course 3
[24] = Pt. # 3, prior to start of CdA treatment course 1
[25] = Pt. # 3, prior to start of CdA treatment course 2
[26] = Pt. # 3, prior to start of CdA treatment course 3
[27] = Pt. # 3, prior to start of CdA treatment course 4

Question: For `Nc1nc(Cl)nc2c1ncn2[C@H]1C[C@H](O)[C@@H](CO)O1` [CdA, 2-chloro-9,1'-beta-D-2'-deoxyribosyladenine], which “time to appearance of DNA breaks” value ([1]; 10 nM CdA) is on record?
Answer: Its value is at most 2 h.

Question: And the “additional residual double-stranded DNA (repair) after CdA removal” value ([1]; 0.1 μM CdA)?
Answer: Its value is 10%.

Question: What about the “additional residual double-stranded DNA (repair) after CdA removal” value ([1]; 1.0 μM CdA) of the same molecule?
Answer: Its value is “no increase”.

Question: What about the “residual double-stranded DNA” value ([1]; pre-exposed to 0.1 or 1.0 μM CdA for four hours) of the same molecule?
Answer: Its value is “approximately 60%”.

Question: What about the “PIP Joint Measurement (Totals, in mm)” value [2, 6] of the same molecule?
Answer: The value was 583 mm.

Question: And the “Performance Index (total score on nine function parameters, each 0 to 10)” value (“Performance Index” below) [2, 6]?
Answer: Its value is 70.

Question: And the “PIP Joint Measurement (Totals, in mm)” value [2, 7]?
Answer: The value was 612 mm.

Question: And the “Performance Index” value [2, 7]?
Answer: The value was 33.

Question: And the “PIP Joint Measurement (Totals, in mm)” value [2, 8]?
Answer: The value was 560 mm.

Question: What about the “Performance Index” value [2, 8] of the same molecule?
Answer: Its value is 27.

Question: And the “Painful Joints” value [2, 9]?
Answer: Its value is 73/38.

Question: What about the “Swollen Joints” value [2, 9] of the same molecule?
Answer: Its value is 51/47.

Question: What about the “Painful Joints” value [2, 10] of the same molecule?
Answer: Its value is 39.

Question: What about the “Swollen Joints” value [2, 10] of the same molecule?
Answer: The value was 37.

Question: What about the “Painful Joints” value [2, 11] of the same molecule?
Answer: Its value is 23.

Question: What about the “Swollen Joints” value [2, 11] of the same molecule?
Answer: Its value is 25.

Question: And the “PIP Joint Measurement (Totals, in mm)” value [2, 12]?
Answer: The value was 527 mm.

Question: What about the “Performance Index” value [2, 12] of the same molecule?
Answer: Its value is 46.

Question: What about the “PIP Joint Measurement (Totals, in mm)” value [2, 13] of the same molecule?
Answer: The value was 526 mm.

Question: And the “Performance Index” value [2, 13]?
Answer: The value was 28.

Question: And the “PIP Joint Measurement (Totals, in mm)” value [2, 14]?
Answer: Its value is 531 mm.

Question: And the “Performance Index” value [2, 14]?
Answer: The value was 22.

Question: And the “PIP Joint Measurement (Totals, in mm)” value ([2]; Pt. # 2, CdA treatment course 4)?
Answer: Its value is 498 mm.

Question: And the “PIP Joint Measurement (Totals, in mm)” value ([2]; Pt. # 2, CdA treatment course 5)?
Answer: Its value is 485 mm.

Question: And the “PIP Joint Measurement (Totals, in mm)” value ([2]; Pt. # 2, CdA treatment course 6)?
Answer: The value was 506 mm.

Question: And the “Painful Joints” value [2, 15]?
Answer: Its value is 32.

Question: And the “Swollen Joints” value [2, 15]?
Answer: The value was 9.

Question: What about the “Painful Joints” value [2, 16] of the same molecule?
Answer: The value was 34.

Question: What about the “Swollen Joints” value [2, 16] of the same molecule?
Answer: The value was 27.

Question: And the “Painful Joints” value [2, 17]?
Answer: The value was 28.

Question: And the “Swollen Joints” value [2, 17]?
Answer: Its value is 25.

Question: What about the “Painful Joints” value [2, 18] of the same molecule?
Answer: Its value is 36.

Question: What about the “Swollen Joints” value [2, 18] of the same molecule?
Answer: Its value is 22.

Question: What about the “Painful Joints” value [2, 19] of the same molecule?
Answer: The value was 27.

Question: And the “Swollen Joints” value [2, 19]?
Answer: Its value is 23.

Question: What about the “Painful Joints” value [2, 20] of the same molecule?
Answer: The value was 26.

Question: What about the “Swollen Joints” value [2, 20] of the same molecule?
Answer: The value was 14.

Question: What about the “PIP Joint Measurement (Totals, in mm)” value [2, 21] of the same molecule?
Answer: Its value is 560 mm.

Question: And the “Performance Index” value [2, 21]?
Answer: Its value is 30.

Question: And the “PIP Joint Measurement (Totals, in mm)” value [2, 22]?
Answer: Its value is 548 mm.

Question: And the “Performance Index” value [2, 22]?
Answer: Its value is 36.

Question: What about the “PIP Joint Measurement (Totals, in mm)” value [2, 23] of the same molecule?
Answer: The value was 549 mm.

Question: What about the “Performance Index” value [2, 23] of the same molecule?
Answer: Its value is 32.

Question: What about the “PIP Joint Measurement (Totals, in mm)” value ([2]; Pt. # 3, CdA treatment course 4) of the same molecule?
Answer: The value was 602 mm.

Question: And the “Painful Joints” value [2, 24]?
Answer: Its value is 36.

Question: And the “Swollen Joints” value [2, 24]?
Answer: The value was 16.

Question: What about the “Painful Joints” value [2, 25] of the same molecule?
Answer: Its value is 40.

Question: What about the “Swollen Joints” value [2, 25] of the same molecule?
Answer: The value was 17.

Question: And the “Painful Joints” value [2, 26]?
Answer: The value was 54.

Question: What about the “Swollen Joints” value [2, 26] of the same molecule?
Answer: The value was 14.

Question: What about the “Painful Joints” value [2, 27] of the same molecule?
Answer: Its value is 59.

Question: What about the “Swollen Joints” value [2, 27] of the same molecule?
Answer: Its value is 11.

Question: And the “time for monocyte numbers to return to approximately pre-treatment number” value ([2]; after infusion of CdA was stopped for each cycle)?
Answer: The value was “within about ten days”.

Question: What about the “arthritic disease states at follow-up” value ([2]; all three patients, reported by personal physicians) of the same molecule?
Answer: Its value is “had improved”.

Question: What about the “total white cell count drop from pretreatment values” ([2]; follow-up, two patients, lasted about three years and over one year post treatment) of the same molecule?
Answer: The value was “about 50%”.

Question: What about the “adverse event leading to drop-out” value ([2]; one patient, after CdA treatment) of the same molecule?
Answer: The value was “overwhelming fatigue phenomenon”.

Question: What about the monocyte number ([2]; patient 1, during each CdA administration cycle, 0.1 mg/kg per day, five days) of the same molecule?
Answer: The monocyte number was “dropped to substantially zero”.

Question: And the “neutrophil and platelet numbers” value ([2]; patient 1, throughout the one hundred days of the study)?
Answer: Its value is “substantially constant”.

Question: What about the “patients with a reduction in the number of painful or swollen joints” value ([2]; three rheumatoid arthritis patients) of the same molecule?
Answer: The value was “two of the three patients”.

Question: What about the IC50 [3] of the same molecule?
Answer: The IC50 was 0.022 µM.

Question: And the “numerical values of the areas of swelling relative to dexamethasone” value ([4]; 0.1 and 1.0 mg/kg CdA, substantially the same)?
Answer: Its value is “slightly less than the value obtained with dexamethasone”.

Question: And the “swelling compared to control saline treated animals” value ([4]; CdA 0.1 mg/kg)?
Answer: The value was “effective at inhibiting swelling”.

Question: And the “swelling compared to control saline treated animals” value ([4]; CdA 1 mg/kg)?
Answer: The value was “effective at inhibiting swelling”.

Question: What about the phosphorylation ([5]; T lymphocytes) of the same molecule?
Answer: The phosphorylation was “phosphorylated efficiently”.

Question: What about the catabolism ([5]; intact human cells or cell extracts) of the same molecule?
Answer: The catabolism was “not catabolized significantly”.
